In paper PMC10539361, “Allosteric modulation of the fish taste receptor type 1 (T1R) family by the extracellular chloride ion” (Scientific Reports, 2023):

Target: T1, mfT1R2a/mfT1R3 (Oryzias latipes, UniProt Q2MHK2+Q2MHK5)
T1 sequence (Q2MHK5 20-819): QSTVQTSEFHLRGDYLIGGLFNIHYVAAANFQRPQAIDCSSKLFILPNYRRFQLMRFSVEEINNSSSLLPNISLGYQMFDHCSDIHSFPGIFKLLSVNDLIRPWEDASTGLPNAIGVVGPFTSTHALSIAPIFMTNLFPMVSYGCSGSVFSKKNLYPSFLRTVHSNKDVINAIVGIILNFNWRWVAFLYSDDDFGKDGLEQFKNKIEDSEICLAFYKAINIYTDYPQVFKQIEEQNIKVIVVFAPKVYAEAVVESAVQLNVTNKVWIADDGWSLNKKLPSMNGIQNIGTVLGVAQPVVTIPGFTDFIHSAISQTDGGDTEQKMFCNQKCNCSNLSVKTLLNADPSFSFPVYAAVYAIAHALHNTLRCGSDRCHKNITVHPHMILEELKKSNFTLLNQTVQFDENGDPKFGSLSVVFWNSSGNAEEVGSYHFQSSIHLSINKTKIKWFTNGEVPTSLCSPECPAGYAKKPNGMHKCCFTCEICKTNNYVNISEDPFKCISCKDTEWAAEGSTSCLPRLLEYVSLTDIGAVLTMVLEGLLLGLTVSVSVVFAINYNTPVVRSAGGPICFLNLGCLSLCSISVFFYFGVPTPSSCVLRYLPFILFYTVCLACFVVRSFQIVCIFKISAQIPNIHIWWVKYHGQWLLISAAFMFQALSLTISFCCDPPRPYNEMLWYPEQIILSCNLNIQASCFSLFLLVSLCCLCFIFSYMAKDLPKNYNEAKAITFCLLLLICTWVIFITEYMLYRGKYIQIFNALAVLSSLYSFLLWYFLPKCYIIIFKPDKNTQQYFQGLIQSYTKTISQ
T1 sequence (Q2MHK2 20-853): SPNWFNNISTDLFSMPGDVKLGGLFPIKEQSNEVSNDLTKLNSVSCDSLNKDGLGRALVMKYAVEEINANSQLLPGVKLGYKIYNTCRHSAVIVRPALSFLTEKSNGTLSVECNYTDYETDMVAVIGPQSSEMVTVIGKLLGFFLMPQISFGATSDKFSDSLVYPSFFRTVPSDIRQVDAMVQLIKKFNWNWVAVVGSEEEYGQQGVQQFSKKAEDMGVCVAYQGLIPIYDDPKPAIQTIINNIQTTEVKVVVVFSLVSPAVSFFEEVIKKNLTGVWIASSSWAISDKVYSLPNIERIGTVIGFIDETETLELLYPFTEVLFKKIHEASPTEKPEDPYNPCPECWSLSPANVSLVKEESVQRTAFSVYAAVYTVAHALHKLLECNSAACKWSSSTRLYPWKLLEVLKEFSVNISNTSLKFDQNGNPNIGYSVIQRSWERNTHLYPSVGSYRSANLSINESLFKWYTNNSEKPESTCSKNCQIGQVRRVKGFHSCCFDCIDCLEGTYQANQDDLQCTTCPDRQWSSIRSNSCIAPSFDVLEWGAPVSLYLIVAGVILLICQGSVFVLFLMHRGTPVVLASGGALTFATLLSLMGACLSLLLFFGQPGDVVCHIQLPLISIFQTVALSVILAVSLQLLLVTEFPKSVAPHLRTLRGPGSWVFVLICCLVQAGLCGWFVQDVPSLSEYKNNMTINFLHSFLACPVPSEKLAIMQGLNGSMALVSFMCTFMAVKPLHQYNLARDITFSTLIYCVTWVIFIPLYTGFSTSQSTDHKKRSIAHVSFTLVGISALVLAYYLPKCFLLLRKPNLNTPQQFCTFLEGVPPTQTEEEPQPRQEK
Experiment: Ca2+ mobilization dose-response assay, stable cells expressing mfT1R2a/mfT1R3 with G16gust44
Protocol: The buffers with lower Cl^− were prepared by progressively replacing NaCl, KCl, CaCl2 and MgCl2 in the buffer with gluconate equivalents[20]. The pH was adjusted to 7.4 with NaOH. Ligands were diluted with the assay buffers at the desired concentrations.
Measurements of the responses of the cells by cell-based assay based on the intracellular Ca^2+ mobilization were carried out as described previously with some modifications[20],[34],[46],[47]. […] The cells were seeded in 96-well plates (clear-bottomed CellBIND surface plate, Corning, Glendale, AZ, USA) coated with ε-poly-L-lysine (Cosmo Bio, Tokyo, Japan) at approximately 70,000 cells per well. After 20 h, the medium was removed and replaced with high Cl^− buffer. After 3 h 30 min incubation at 27 °C, cells were loaded with 5 µM calcium-indicator dye Fluo-8 AM (AAT Bioquest, Sunnyvale, CA, USA) diluted in high Cl^− buffer. After incubation for 30 min at 27 °C, the cells were washed with buffers containing appropriate concentrations of Cl^−. The cellular assay was initiated after 3–5 min of resting and was completed within 5 min. The measurements were made using FlexStation 3 (Molecular Devices, Sunnyvale, CA, USA) at 27 °C. Fluorescence changes (i.e., excitation at 485 nm and emission at 525 nm with a cutoff at 515 nm) were monitored at 2 s intervals. A 100-µL aliquot of assay buffer supplemented with 2 × ligands was added at 20 s, and scanning was continued for an additional 40 s. The response of each well was determined as ∆RFU (delta relative fluorescent units), which was calculated as (maximum fluorescent value)—(minimum fluorescent value). […] Such normalized data from more than three independent experiments are reported as the mean ± standard error of the mean (SEM). Dose‒response fitting curves were calculated by Prism 9 (GraphPad Software, San Diego, CA) using nonlinear regression (log(agonist) vs. response—variable slope), based on the integrated data from the several independent experiments.

| Compound | EC50 in 10 mM Cl- buffer relative to high Cl- buffer (10 mM vs 141.4 mM Cl- buffer) | [Cl-]o at which sensitivity is clearly reduced (agonist L-Gln, buffers with 10-141.4 mM Cl-) | [Cl-]o required for saturation of the sensitivity (sensitivity to L-Gln, Fig. 2A,D) |
| --- | --- | --- | --- |
| C[C@H](N)C(=O)O [L-Ala, L-alanine] | ~7 times higher | – | – |
| [Cl-].[Na+] [NaCl] | – | below 80 mM | 40 to 80 mM |
